Reference: the supplement of paper PMC10307832

Assays:
Assay in all cases: relative viability (nuclei count vs DMSO), 5 days (fraction); higher = more cells survive
Tozasertib = compound: Cc1cc(Nc2cc(N3CCN(C)CC3)nc(Sc3ccc(NC(=O)C4CC4)cc3)n2)n[nH]1 [Tozasertib]
How it was run: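 Nuclei counted with MetaXpress define viability as the ratio of treated to vehicle wells, given as a median across plates. The lung cancer cell lines were in 1536-well plates, pinned with five √10-spaced library-drug doses and imaged at 4× after 5 days and Hoechst staining. Plates passed with control CV below 25% and at least one doubling.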

Tozasertib + Phenformin = compound: Cc1cc(Nc2cc(N3CCN(C)CC3)nc(Sc3ccc(NC(=O)C4CC4)cc3)n2)n[nH]1 [Tozasertib] + N=C(N)NC(=N)NCCc1ccccc1 [Phenformin] (partner 250 µM)
How it was run: (§1)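 Five library-drug doses in √10 steps were combined with a fixed anchor-drug dose, or a single drug was given alone, by pin tool to lung cancer cell lines in 1536-well plates the day after seeding. Nuclei were stained and counted after 5 days. Relative viability is the nuclei count in treated wells over that in vehicle wells, taken as the median of duplicate plates.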

Tozasertib + OSI-027 = compound: Cc1cc(Nc2cc(N3CCN(C)CC3)nc(Sc3ccc(NC(=O)C4CC4)cc3)n2)n[nH]1 [Tozasertib] + COc1cccc2cc(-c3nc([C@H]4CC[C@H](C(=O)O)CC4)n4ncnc(N)c34)[nH]c12 [OSI-027] (partner 0.5 µM)
How it was run: as §1

Tozasertib + Dasatinib = compound: Cc1cc(Nc2cc(N3CCN(C)CC3)nc(Sc3ccc(NC(=O)C4CC4)cc3)n2)n[nH]1 [Tozasertib] + Cc1nc(Nc2ncc(C(=O)Nc3c(C)cccc3Cl)s2)cc(N2CCN(CCO)CC2)n1 [Dasatinib] (partner 0.075 µM)
How it was run: as §1

Tozasertib + Luminespib = compound: Cc1cc(Nc2cc(N3CCN(C)CC3)nc(Sc3ccc(NC(=O)C4CC4)cc3)n2)n[nH]1 [Tozasertib] + CCNC(=O)c1noc(-c2cc(C(C)C)c(O)cc2O)c1-c1ccc(CN2CCOCC2)cc1 [Luminespib] (partner 0.01 µM)
How it was run: as §1

Tozasertib + Foretinib = compound: Cc1cc(Nc2cc(N3CCN(C)CC3)nc(Sc3ccc(NC(=O)C4CC4)cc3)n2)n[nH]1 [Tozasertib] + COc1cc2c(Oc3ccc(NC(=O)C4(C(=O)Nc5ccc(F)cc5)CC4)cc3F)ccnc2cc1OCCCN1CCOCC1 [Foretinib] (partner 0.25 µM)
How it was run: as §1

Tozasertib + Vorinostat = compound: Cc1cc(Nc2cc(N3CCN(C)CC3)nc(Sc3ccc(NC(=O)C4CC4)cc3)n2)n[nH]1 [Tozasertib] + O=C(CCCCCCC(=O)Nc1ccccc1)NO [Vorinostat] (partner 1 µM)
How it was run: as §1

Tozasertib + Olaparib = compound: Cc1cc(Nc2cc(N3CCN(C)CC3)nc(Sc3ccc(NC(=O)C4CC4)cc3)n2)n[nH]1 [Tozasertib] + O=C(c1cc(Cc2n[nH]c(=O)c3ccccc23)ccc1F)N1CCN(C(=O)C2CC2)CC1 [Olaparib] (partner 8 µM)
How it was run: as §1

Tozasertib + Decitabine = compound: Cc1cc(Nc2cc(N3CCN(C)CC3)nc(Sc3ccc(NC(=O)C4CC4)cc3)n2)n[nH]1 [Tozasertib] + Nc1ncn([C@H]2C[C@H](O)[C@@H](CO)O2)c(=O)n1 [Decitabine] (partner 2 µM)
How it was run: as §1

Tozasertib + Palbociclib = compound: Cc1cc(Nc2cc(N3CCN(C)CC3)nc(Sc3ccc(NC(=O)C4CC4)cc3)n2)n[nH]1 [Tozasertib] + CC(=O)c1c(C)c2cnc(Nc3ccc(N4CCNCC4)cn3)nc2n(C2CCCC2)c1=O [Palbociclib] (partner 0.5 µM)
How it was run: as §1

Tozasertib + Trametinib = compound: Cc1cc(Nc2cc(N3CCN(C)CC3)nc(Sc3ccc(NC(=O)C4CC4)cc3)n2)n[nH]1 [Tozasertib] + CC(=O)Nc1cccc(-n2c(=O)n(C3CC3)c(=O)c3c(Nc4ccc(I)cc4F)n(C)c(=O)c(C)c32)c1 [Trametinib] (partner 0.02 µM)
How it was run: as §1

Tozasertib + Pemetrexed = compound: Cc1cc(Nc2cc(N3CCN(C)CC3)nc(Sc3ccc(NC(=O)C4CC4)cc3)n2)n[nH]1 [Tozasertib] + Nc1nc2[nH]cc(CCc3ccc(C(=O)N[C@@H](CCC(=O)O)C(=O)O)cc3)c2c(=O)[nH]1 [Pemetrexed] (partner 0.2 µM)
How it was run: as §1

Tozasertib + AZD7762 = compound: Cc1cc(Nc2cc(N3CCN(C)CC3)nc(Sc3ccc(NC(=O)C4CC4)cc3)n2)n[nH]1 [Tozasertib] + NC(=O)Nc1cc(-c2cccc(F)c2)sc1C(=O)N[C@H]1CCCNC1 [AZD7762] (partner 0.2 µM)
How it was run: as §1

Cell Line: NCI-H1623
- relative viability (Tozasertib; 0.004 µM): 0.859
- relative viability (Tozasertib; 0.01265 µM): 0.965
- relative viability (Tozasertib; 0.04 µM): 0.966
- relative viability (Tozasertib; 0.1 µM, anchor plate): 0.434
- relative viability (Tozasertib; 0.1265 µM): 0.929
- relative viability (Tozasertib + Phenformin; first compound 0.004 µM): 0.552
- relative viability (Tozasertib + Phenformin; first compound 0.01265 µM): 0.541
- relative viability (Tozasertib + Phenformin; first compound 0.04 µM): 0.583
- relative viability (Tozasertib + Phenformin; first compound 0.1265 µM): 0.526
- relative viability (Tozasertib + OSI-027; first compound 0.004 µM): 0.45
- relative viability (Tozasertib + OSI-027; first compound 0.01265 µM): 0.428
- relative viability (Tozasertib + OSI-027; first compound 0.04 µM): 0.487
- relative viability (Tozasertib + OSI-027; first compound 0.1265 µM): 0.453
- relative viability (Tozasertib + Dasatinib; first compound 0.004 µM): 0.549
- relative viability (Tozasertib + Dasatinib; first compound 0.01265 µM): 0.515
- relative viability (Tozasertib + Dasatinib; first compound 0.04 µM): 0.536
- relative viability (Tozasertib + Dasatinib; first compound 0.1265 µM): 0.556
- relative viability (Tozasertib + Luminespib; first compound 0.004 µM): 0.43
- relative viability (Tozasertib + Luminespib; first compound 0.04 µM): 0.473
- relative viability (Tozasertib + Luminespib; first compound 0.1265 µM): 0.505
- relative viability (Tozasertib + Foretinib; first compound 0.004 µM): 0.781
- relative viability (Tozasertib + Foretinib; first compound 0.01265 µM): 0.829
- relative viability (Tozasertib + Foretinib; first compound 0.04 µM): 0.898
- relative viability (Tozasertib + Foretinib; first compound 0.1265 µM): 0.761

Cell Line: NCI-H1648
- relative viability (Tozasertib; 0.01265 µM): 0.779
- relative viability (Tozasertib; 0.04 µM): 0.743
- relative viability (Tozasertib; 0.1 µM, anchor plate): 0.497
- relative viability (Tozasertib; 0.1265 µM): 0.79
- relative viability (Tozasertib + Vorinostat; first compound 0.004 µM): 0.42
- relative viability (Tozasertib + Vorinostat; first compound 0.01265 µM): 0.296
- relative viability (Tozasertib + Vorinostat; first compound 0.04 µM): 0.425
- relative viability (Tozasertib + Vorinostat; first compound 0.1265 µM): 0.379
- relative viability (Tozasertib + Olaparib; first compound 0.004 µM): 1.64
- relative viability (Tozasertib + Olaparib; first compound 0.01265 µM): 0.767
- relative viability (Tozasertib + Olaparib; first compound 0.04 µM): 0.844
- relative viability (Tozasertib + Olaparib; first compound 0.1265 µM): 0.531
- relative viability (Tozasertib + OSI-027; first compound 0.1265 µM): 0.237
- relative viability (Tozasertib + Decitabine; first compound 0.004 µM): 0.461
- relative viability (Tozasertib + Decitabine; first compound 0.01265 µM): 0.461
- relative viability (Tozasertib + Decitabine; first compound 0.04 µM): 0.383
- relative viability (Tozasertib + Decitabine; first compound 0.1265 µM): 0.401
- relative viability (Tozasertib + Palbociclib; first compound 0.004 µM): 0.279
- relative viability (Tozasertib + Palbociclib; first compound 0.01265 µM): 0.304
- relative viability (Tozasertib + Palbociclib; first compound 0.04 µM): 0.276
- relative viability (Tozasertib + Palbociclib; first compound 0.1265 µM): 0.255
- relative viability (Tozasertib + Trametinib; first compound 0.004 µM): 0.488
- relative viability (Tozasertib + Trametinib; first compound 0.01265 µM): 0.444
- relative viability (Tozasertib + Trametinib; first compound 0.04 µM): 0.425
- relative viability (Tozasertib + Trametinib; first compound 0.1265 µM): 0.41
- relative viability (Tozasertib + Pemetrexed; first compound 0.004 µM): 0.891
- relative viability (Tozasertib + Pemetrexed; first compound 0.01265 µM): 0.665
- relative viability (Tozasertib + Pemetrexed; first compound 0.04 µM): 0.773
- relative viability (Tozasertib + Pemetrexed; first compound 0.1265 µM): 0.615
- relative viability (Tozasertib + AZD7762; first compound 0.004 µM): 0.717
- relative viability (Tozasertib + AZD7762; first compound 0.01265 µM): 0.619
- relative viability (Tozasertib + AZD7762; first compound 0.04 µM): 0.596
- relative viability (Tozasertib + AZD7762; first compound 0.1265 µM): 0.393
